Experimental data reported in ChEMBL document CHEMBL1201862, “PubChem BioAssay data set” (2004).
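Values below derive from 48-hour exposures of cells grown in 96-well plates, with endpoints linearly interpolated between the two concentrations bracketing the appropriate inhibition level. GI50 marks 50% less growth.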 Active and inactive are the calls of the source. Rule as the data show it: active = GI50 up to about 1.1 µM and inactive = higher.

Experiments:
Assay in all cases: inhibition of tumour cell growth, NCI panel, 48 h
MOLT-4 = test system: MOLT-4
TK-10 = test system: TK-10
HCT-15 = test system: HCT-15
RPMI-8226 = test system: RPMI-8226
Malme-3M = test system: Malme-3M
SF-295 = test system: SF-295
HOP-92 = test system: HOP-92
SW-620 = test system: SW-620
HCC 2998 = test system: HCC 2998
DLD-1 = test system: DLD-1
M14 = test system: M14
OVCAR-3 = test system: OVCAR-3
786-0 = test system: 786-0
OVCAR-4 = test system: OVCAR-4
PC-3 = test system: PC-3
SF-539 = test system: SF-539
BT-549 = test system: BT-549
HCT-116 = test system: HCT-116
SK-MEL-5 = test system: SK-MEL-5
HL-60 = test system: HL-60

SMILES	GI50 (MOLT-4)	GI50 (TK-10)	GI50 (HCT-15)	GI50 (RPMI-8226)	GI50 (Malme-3M)	GI50 (SF-295)	GI50 (HOP-92)	GI50 (SW-620)	GI50 (HCC 2998)	GI50 (DLD-1)	GI50 (M14)	GI50 (OVCAR-3)	GI50 (786-0)	GI50 (OVCAR-4)	GI50 (PC-3)	GI50 (SF-539)	GI50 (BT-549)	GI50 (HCT-116)	GI50 (SK-MEL-5)	GI50 (HL-60)
O=C(/C=C/c1ccccc1F)c1ccc([N+](=O)[O-])cc1	2.07 µM (inactive)	23.9 µM (inactive)	18.2 µM	2 µM (inactive)	27.8 µM (inactive)	27.9 µM (inactive)	16.3 µM (inactive)	26.6 µM (inactive)	15.6 µM (inactive)	16.6 µM (inactive)	26.8 µM (inactive)	24.6 µM (inactive)	26.8 µM (inactive)	25.3 µM (inactive)	–	–	–	–	–	–
C=C(C)[C@@]12C[C@H](OC(=O)[C@H](O)[C@@H](NC(=O)c3ccccc3)c3ccccc3)C(C)=C1[C@@H](OC(C)=O)C(=O)[C@@]1(C)C([C@@H]2OC(=O)c2cc(F)cc(F)c2)C2(OC(C)=O)CO[C@@H]2C[C@@H]1O (some centres not stated)	0.0428 µM (active)	0.3 µM (active)	0.292 µM	0.0236 µM (active)	0.461 µM (active)	> 10 µM (inactive)	2.4 µM (inactive)	0.0505 µM (active)	0.0668 µM (active)	–	0.141 µM (active)	0.122 µM (active)	0.0853 µM (active)	2.38 µM (inactive)	0.0826 µM (active)	0.0282 µM (active)	0.194 µM (active)	0.0201 µM (active)	0.117 µM (active)	0.0269 µM (active)
CN(C)CCNC(=O)c1cccc2c(NC(CS)C(=O)O)c3ccccc3nc12 (configuration not stated)	3.17 µM (inactive)	28.8 µM (inactive)	3.72 µM	7.52 µM (inactive)	2.52 µM (inactive)	5.32 µM (inactive)	19.9 µM (inactive)	4.05 µM (inactive)	6.21 µM (inactive)	–	4.39 µM (inactive)	13 µM (inactive)	6.64 µM (inactive)	17.1 µM (inactive)	6.07 µM (inactive)	2.41 µM (inactive)	14.5 µM (inactive)	4.73 µM (inactive)	3.07 µM (inactive)	3.3 µM (inactive)
Cc1cccc2c1nc1n2C(=O)c2ccccc2-1	> 100 µM (inactive)	> 100 µM (inactive)	> 100 µM	> 100 µM (inactive)	> 100 µM (inactive)	> 100 µM (inactive)	> 100 µM (inactive)	> 100 µM (inactive)	> 100 µM (inactive)	–	> 100 µM (inactive)	> 100 µM (inactive)	> 100 µM (inactive)	> 100 µM (inactive)	> 100 µM (inactive)	> 100 µM (inactive)	> 100 µM (inactive)	> 100 µM (inactive)	> 100 µM (inactive)	> 100 µM (inactive)
COc1ccc(S(=O)(=O)N[C@H](C(=O)O)c2ccccc2)cc1	> 100 µM (inactive)	> 100 µM (inactive)	> 100 µM	> 100 µM (inactive)	> 100 µM (inactive)	> 100 µM (inactive)	–	> 100 µM (inactive)	> 100 µM (inactive)	> 100 µM (inactive)	> 100 µM (inactive)	> 100 µM (inactive)	> 100 µM (inactive)	> 100 µM (inactive)	–	> 100 µM (inactive)	–	> 100 µM (inactive)	> 100 µM (inactive)	–
Cc1ccc(S(=O)(=O)NCCCN(CCCNS(=O)(=O)c2ccc(C)cc2)S(=O)(=O)c2ccc(C)cc2)cc1	> 100 µM (inactive)	> 100 µM (inactive)	> 100 µM	> 100 µM (inactive)	> 100 µM (inactive)	> 100 µM (inactive)	–	> 100 µM (inactive)	> 100 µM (inactive)	> 100 µM (inactive)	> 100 µM (inactive)	> 100 µM (inactive)	> 100 µM (inactive)	–	–	> 100 µM (inactive)	–	> 100 µM (inactive)	–	> 100 µM (inactive)
CCOC(=O)/C=C(\C(=O)OCC)n1ccc(=O)[nH]c1=O	3.44 µM (inactive)	13.3 µM (inactive)	6.27 µM	13.1 µM (inactive)	10.2 µM (inactive)	> 60.8 µM (inactive)	2.55 µM (inactive)	2.64 µM (inactive)	22.4 µM (inactive)	–	16.5 µM (inactive)	13.2 µM (inactive)	4.85 µM (inactive)	19.1 µM (inactive)	16.9 µM (inactive)	24.2 µM (inactive)	16.7 µM (inactive)	6.31 µM (inactive)	24.7 µM (inactive)	2.44 µM (inactive)
COC(=O)C(=O)CC(=O)CCn1[nH]c(=O)c(Cl)c(Cl)c1=O	–	> 100 µM (inactive)	> 100 µM	–	> 100 µM (inactive)	> 100 µM (inactive)	> 100 µM (inactive)	> 100 µM (inactive)	> 100 µM (inactive)	> 100 µM (inactive)	> 100 µM (inactive)	> 100 µM (inactive)	> 100 µM (inactive)	> 100 µM (inactive)	–	> 100 µM (inactive)	–	> 100 µM (inactive)	> 100 µM (inactive)	> 100 µM (inactive)
